Measurements published in article PMC9497102, “Thiosemicarbazone Derivatives Developed to Overcome COTI-2 Resistance” (Cancers, 2022).

How the values were obtained:
Assay type in all cases: cell-based, human
SW480 cells [1] = assay: Mitotic nuclei by DAPI staining; details: 24 h
Procedure: In order to detect mitotic nuclei, fixed cells were stained with DAPI. SW480 and SW480/Coti cells were seeded at a density of 2 × 10^5 cells per well in 6-well plates and left to recover for 24 h. This was followed by drug treatment at the indicated concentrations for 24 h. Then, cells were collected and spun on slides by centrifugation with a Thermo Scientific Cytospin 4 (400 rpm, 5 min at 4 °C). The slides were dried, and the cells were fixed with a methanol/acetone (1:1) mixture at −20 °C and stained with a solution containing DAPI (1 µg/mL). A final washing step with phosphate-buffered saline (PBS) was performed, followed by covering the slides with vectashield (H-100, Vector Laboratories, Inc., Newark, CA, USA) and coverslips. Mitotic nuclei were counted with Image J in three different areas per slide from three independent experiments.

SW480 cells [2] = assay: Cell cycle analysis by PI staining and flow cytometry; details: 24 h
Procedure: The cell cycle phases were analyzed by staining the DNA of ethanol-fixed cells with PI, as previously described. SW480 and SW480/Coti cells were seeded at a density of, 2 × 10^5 cells/well in 6-well plates and treated with the indicated concentrations of COTI-2 and COTI-NMe2 for 24 h. Then, cells were collected by trypsinization and fixed in cold 70% ethanol. In order to digest RNA, the cells were treated with RNase (0.2 mg/mL, Sigma) and, subsequently, DNA was stained with PI (1 µg/mL). Fluorescence was measured by flow cytometry (FACS Calibur, Becton Dickinson, Ashland, CA, USA) and cell cycle phases were analyzed using Cell Quest Pro software.

SW480 cells [3] = assay: MTT viability assay, 72 h; details: for IC50: Homo sapiens, SW480, MTT; for enhancement of cytotoxicity by copper complexation: copper complex vs. ligand
Procedure: (§1) In vitro tests were performed with human colorectal cancer SW480 cells (purchased from the American Type Culture Collection, Manassas, VA, USA), SW480/Tria, and the SW480/Coti cells, which are previously established sublines that are resistant to Triapine and COTI-2 [16], respectively. Additionally, small-cell lung carcinoma GLC-4 and its subline GLC-4/adr, which is a doxorubicin-resistant subline overexpressing ABCC1 (purchased from Dr. […], Groningen, The Netherlands), were used. All cells were maintained in a humidified 5% CO2 incubator at 37 °C and grown in minimal essential medium or RPMI-1640, respectively, supplemented with 10% fetal bovine serum (FBS). In order to maintain the resistant phenotype of GLC-4/adr cells, they were selected with doxorubicin (1152 nM) once a month. All cell lines were tested for mycoplasma contamination. For the cytotoxicity, cell viability, and proliferation studies, the 3-(4,5-dimethylthiazol-2-yl)-2,5-diphenyltetrazolium bromide (MTT) assay was utilized. Cells were seeded in 96-well plates at a density of 2 × 10^4 cells/well, with the exception of SW480/Tria, which was used at a density of 3 × 10^4 cells/well. After 24 h of recovery, cells were treated with the indicated concentration of drugs. For the drug combination experiments, verapamil and cyclosporine A (CSA) were used as ABCC1 modulators, and tetrathiomolybdate (TTM) was used as a copper chelator. The TSCs were dissolved in DMSO followed by subsequent dilutions in the medium in order to maintain a final DMSO concentration of <1%. After 72 h, the treatment solution was removed and replaced with 100 μL of MTT solution (EZ4U, Biomedica, Vienna, Austria), which was diluted 1:10 in the growth medium. A TECAN Infinite 200 Pro plate reader was used to measure the absorbance of the solution after 2-3 h incubation at 5% CO2 in an incubator at 37 °C. The anticancer activity was determined with GraphPad Prism software and indicated as IC50 values (half maximum inhibitory concentration).

SW480/Tria cells = assay: MTT viability assay, 72 h; details: for IC50: Homo sapiens, SW480, 72 h, MTT; for Relative Resistance SW480/Tria: IC50 of resistant subline divided by IC50 of parental SW480
Procedure: as §1

[4] = tested on: SW480 and SW480/Coti cells; assay: HPLC-MS cell uptake measurements; details: 10 µM, 3 h; for uptake lower in resistant SW480/Coti cells compared with parental SW480 cells: LC-MS (method not validated)
Procedure: Cells (1 × 10^6) were seeded in 25 cm^2 culture flasks and left to recover for 24 h at 37 °C and 5% CO2. The compounds were dissolved in DMSO (10 mM) and further diluted in the growth medium. The cells were treated in triplicate by replacing the growth medium with 5 mL of drug-containing medium (10 µM). After 3 h of incubation the cells were washed once with ice-cold PBS, and then collected by scraping into ice-cold PBS. The cell suspension was centrifuged for 5 min at 300× g and the supernatant was removed. Then, the cell pellets were lysed with three freeze/thaw cycles in liquid nitrogen/37 °C waterbath and re-suspended in 100 µL of water and 300 µL of cold acetonitrile (1:3 mixture). After 10 min of incubation on ice, the samples were centrifuged (15,080× g, 4 °C, and 10 min) and the supernatants were stored at −80 °C for HPLC-MS analysis. For the calibration curve, known concentrations of drugs were spiked into untreated cell extracts before adding acetonitrile. To normalize to the cell number, additional flasks were prepared (treated and untreated) and cells were collected by trypsinization and counted with counting chambers.
LC-MS analyses of the cell and media extracts were performed on a Vanquish Horizon UHPLC system (Thermo Fisher Scientific, Waltham, MA, USA) coupled to the ESI source of a timsTOF fleX mass spectrometer (Bruker Daltonics, Billerica, MA, USA). […] High-resolution ESI-MS spectra were recorded using the positive ion mode in the range of m/z 150–510 at a spectra rate of 2 Hz. […] For quantification, extracted ion chromatograms of m/z 249.1168 ± 0.0020 for COTI-NMe2 and of m/z 367.1699 ± 0.0020 for COTI-2 were calculated and the peak areas were determined using Bruker Compass Data Analysis 5.3.
In general, it must be mentioned that the LC-MS method for quantification of COTI-2 and COTI-NMe2 was not validated and that the deviation of the peak areas both within a batch and between batches was higher than expected. […]

IC50 (SW480 cells [3]; 72 h) [nM]	lower IC50 value than the other tested COTI-2 derivatives (SW480 cells [3]; SW480 cells)	lower IC50 value than COTI-2 (SW480 cells [3]; SW480 cells, 72 h) [fold]	IC50 (SW480/Tria cells) [nM]	Compound	effect on mitotic cell fraction (SW480 cells [1])	effect on G2/M population (SW480 cells [2])	Relative Resistance SW480/Tria (SW480/Tria cells)	uptake lower in resistant SW480/Coti cells compared with parental SW480 cells [4]	lower intracellular drug levels compared with COTI-2 ([4]; both SW480 and SW480/Coti)	enhancement of cytotoxicity by copper complexation (SW480 cells [3]; SW480 cells, 72 h)
40 ± 10	~ 10 fold	11	40 ± 20	CN(C)C(=S)NN=C1CCCc2cccnc21 (mixture of isomers) [COTI-NMe2, 2-(6,7-Dihydroquinolin-8(5H)-ylidene)-N^4,N^4-dimethylhydrazine-1-carbothioamide]	(complete) loss of the mitotic cell fraction	significant reduction in the G2/M population	1.0 ^n.s.	no difference	10–20 fold	–
370 ± 170	–	–	–	S=C(N/N=C1\CCCc2cccnc21)N1CCN(c2ccccn2)CC1 [COTI-2, 4-(pyridine-2-yl)-N-([(8E)-5,6,7,8-tetrahydroquinolin-8-ylidene]amino)piperazine-1-carbothioamide]	(complete) loss of the mitotic cell fraction	significant reduction in the G2/M population	1.1 ^n.s.	~ 40%	–	7–8 fold
640 ± 100	–	–	710 ± 170	CN(C(=S)N/N=C1\CCCc2cccnc21)C1CCCCC1 [COTI-NMeCy, N-Cyclohexyl-2-(6,7-dihydroquinolin-8(5H)-ylidene)-N^4-methylhydrazine-1-carbothioamide]	–	–	1.1 ^n.s.	–	–	7–8 fold
